Measured values as given in ChEMBL document CHEMBL2046276, “Molecular cloning, characterization, and inhibition studies of a β-carbonic anhydrase from Malassezia globosa, a potential antidandruff target” (J Med Chem, 2012).
Converted amounts (≈) assume the structure as drawn. The source made the active and inactive calls. The calls are words filed in the database; no cut-off is given here.

How the values were obtained:
Carbonic anhydrase = molecular target: T1, Carbonic anhydrase (Candida albicans (strain SC5314 / ATCC MYA-2876) (Yeast), UniProt Q5AJ71)
T1 sequence (Q5AJ71 whole entry): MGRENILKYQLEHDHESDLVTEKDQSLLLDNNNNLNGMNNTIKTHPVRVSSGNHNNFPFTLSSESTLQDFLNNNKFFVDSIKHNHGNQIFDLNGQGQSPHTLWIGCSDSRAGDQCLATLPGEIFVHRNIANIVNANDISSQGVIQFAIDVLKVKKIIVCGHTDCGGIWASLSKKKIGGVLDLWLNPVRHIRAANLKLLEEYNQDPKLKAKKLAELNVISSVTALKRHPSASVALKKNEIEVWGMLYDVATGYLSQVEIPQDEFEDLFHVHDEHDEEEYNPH

[1] = microbe, parasite or virus in culture; settings: Malassezia globosa, CBS 7966, 168 h
Malassezia dermatis = experiment: microbe, parasite or virus in culture; settings: CBS 9145, 168 h
Malassezia pachydermatis [2] = experiment: microbe, parasite or virus in culture; settings: CBS 6536, 168 h
Malassezia furfur = experiment: microbe, parasite or virus in culture; settings: CBS 9569, 168 h
Malassezia pachydermatis [3] = experiment: Antimicrobial activity against Malassezia pachydermatis infected in CD-1 mouse model of dandruff assessed as fungal hyphae fragmentation at 5% cream administered once daily for 6 days measured daily for 20 days; format: functional
Malassezia pachydermatis [4] = experiment: Antimicrobial activity against Malassezia pachydermatis infected in CD-1 mouse model of dandruff assessed as improvement in skin appearance at 5% cream administered once daily for 6 days measured daily for 20 days; format: functional
Malassezia pachydermatis [5] = experiment: Antimicrobial activity against Malassezia pachydermatis infected in CD-1 mouse model of dandruff assessed as fungal hyphae fragmentation at 2% cream administered once daily for 6 days measured daily for 20 days; format: functional
Malassezia pachydermatis [6] = experiment: Antimicrobial activity against Malassezia pachydermatis infected in CD-1 mouse model of dandruff assessed as improvement in skin appearance at 2% cream administered once daily for 6 days measured daily for 20 days; format: functional

Structure (SMILES)	Ki (Carbonic anhydrase) [nM]	MIC [1] [µg/mL]	MIC (Malassezia dermatis) [µg/mL]	MIC (Malassezia pachydermatis [2]) [µg/mL]	MIC (Malassezia furfur) [µg/mL]	Activity (Malassezia pachydermatis [3])	Activity (Malassezia pachydermatis [4]) [%]	Activity (Malassezia pachydermatis [5])	Activity (Malassezia pachydermatis [6])
NS(=O)(=O)Nc1ccc(Br)cc1	763	–	–	–	–	–	–	–	–
NS(=O)(=O)c1ccc(Br)cc1	894	320 (≈ 1360 µM)	320 (≈ 1360 µM)	320 (≈ 1360 µM)	320 (≈ 1360 µM)	–	–	–	–
Nc1cc(Cl)c(S(N)(=O)=O)cc1S(N)(=O)=O	–	640 (≈ 2240 µM)	640 (≈ 2240 µM)	640 (≈ 2240 µM)	640 (≈ 2240 µM)	–	–	–	–
NS(=O)(=O)Oc1ccc(Br)cc1	715	–	–	–	–	–	–	–	–
Nc1ccccc1S(N)(=O)=O	–	640 (≈ 3720 µM)	640 (≈ 3720 µM)	> 640	640 (≈ 3720 µM)	–	–	–	–
NCCc1ccc(S(N)(=O)=O)cc1	–	320 (≈ 1600 µM)	640 (≈ 3200 µM)	640 (≈ 3200 µM)	640 (≈ 3200 µM)	Active	67	–	–
CC(=O)N1CCN(c2ccc(OCC3COC(Cn4ccnc4)(c4ccc(Cl)cc4Cl)O3)cc2)CC1 (configuration not stated)	–	–	–	–	–	–	–	Active	Active
Nc1cc(C(F)(F)F)c(S(N)(=O)=O)cc1S(N)(=O)=O [2,4-DISULFAMYLTRIFLUOROMETHYLANILINE]	–	320 (≈ 1000 µM)	> 640	> 640	> 640	–	–	–	–
NS(=O)(=O)c1ccccc1 [BENZENESULFONAMIDE]	2360	320 (≈ 2040 µM)	> 640	160 (≈ 1020 µM)	160 (≈ 1020 µM)	–	–	–	–
NS(=O)(=O)c1ccc(C(=O)O)cc1 [CARZENIDE]	–	640 (≈ 3180 µM)	> 640	640 (≈ 3180 µM)	> 640	–	–	–	–
NS(=O)(=O)c1cc(Cl)c(Cl)c(S(N)(=O)=O)c1 [DICHLORPHENAMIDE]	–	320 (≈ 1050 µM)	> 640	> 640	> 640	–	–	–	–
NCc1ccc(S(N)(=O)=O)cc1 [MAFENIDE]	–	160 (≈ 859 µM)	160 (≈ 859 µM)	160 (≈ 859 µM)	320 (≈ 1720 µM)	–	–	–	–
Cc1ccc(S(N)(=O)=O)cc1 [P-TOLUENESULFONAMIDE]	–	160 (≈ 934 µM)	–	–	640 (≈ 3740 µM)	–	–	–	–
NS(=O)(=O)Oc1ccccc1 [PHENYLSULFAMATE]	1970	–	–	–	–	–	–	–	–
NS(=O)(=O)Nc1ccccc1 [PHENYLSULFAMIDE]	1910	–	–	–	–	–	–	–	–
Nc1ccc(S(N)(=O)=O)cc1 [SULFANILAMIDE]	–	80 (≈ 465 µM)	160 (≈ 929 µM)	10 (≈ 58.1 µM)	80 (≈ 465 µM)	–	–	–	–
